# Where two headings read alike, the source gives them in different places.
# How the values were obtained:
# Type in all cases: in vivo, Kunming mice
# HCMV infected mice [1] = assay: Survival rate and weight of HCMV infected mice; settings: for Toxic symptoms, death and weight growth of treated HCMV infected mice (in words): 21 days of intragastric administration, compared with model group; for Average animal weight (g) Termination of treatment: HCMV infected mice; for Average animal weight (g) Termination of treatment / Animal number (n) Termination of treatment: 21 days; for Animal number (n) Termination of treatment: surviving of 10 HCMV infected mice
# Description: 1.3 Virus standard strain HCMVADI69 and the proliferation of species are introduced in October 1999 from Virus Seed Room of Virus Institute in Chinese Academy of Preventive Medicine. […] HEL cultural supernatant reaching +++−++++ in the cell lesions is discarded and lightly washed for 3 times by PBS; double distilled water is added; freeze-thawing is performed for 3 times at −20° C.; vigorous blowing and beating are performed; 10,000 r/min centrifugation is performed at 4° C. for 20 min; and the supernatant is collected to obtain the standard virus strain.
# (§1) The mice were injected with HCMV10^−3 (0.1 ml/mouse) through the caudal vein of mouse tails; 0.9% normal saline is injected to the normal control group, 0.1 ml/piece; and intragastric administration is started according to the determined dosage on the second day of infection, with 21 days of medication.
# (§2) During the experiment. Animals were weighed and the thymus and spleen were weighed on the 21st day of administration, and their indices (thymus index, spleen index, weight of thymus and spleen organs per 10 g body weight (mg)) were measured.
# Recording the number of dead animals in the experimental process.
# All the mice are subjected to the medicines continuously for 21 days in the whole experimental process.
# HCMV infected mice [2] = assay: Spleen and thymus gland indexes of HCMV infected mice; settings: for Effect on weight of the immune organs of HCMV infected mice (in words): thymus glands and spleens; for Effect on weight of the immune organs of HCMV infected mice (in words) / Spleen indexes / Thymus gland indexes: day 21
# Description: as §1, §2
# Thymus glands and spleens are important immune organs, with the organ indexes reflecting the strength of immune functions of organisms to a certain degree. The thymus glands have the main functions of generating T-lymphocytes and secreting thymosin, and mainly take part in cellular immunity; and abundant lymphocytes and macrophages are contained in the spleens. The weight of the thymus glands and the spleens is related to functions thereof as well as the quantity of immune cells therein, and the height depends on the proliferation degree of the lymphocytes therein.
# HCMV infected mice [3] = assay: IL-2 level in serum of HCMV infected mice (ELISA kit); settings: for IL-2 level compared with the positive drug control group (in words): ganciclovir 45.5 mg/kg/d as comparator; for IL-2 concentration: 21 days
# Description: as §1
# Selecting six mice in each group randomly for sampling, 40 min later after the last administration, picking eyeballs to take blood, and collecting the blood by a centrifugal tube Performing high-speed centrifugation for 5 min at 3000 r/min after blood coagulation, and taking the serum. The IL-2 in the serum is measured according to the manual of an ELISA kit.
# 1L-2, namely interleukin-2, is also named T cell growth factor (TCGF), is a cell factor with wide biological activity, which is generated by activated CD4+Th1 cells, and can promote the proliferation of Th0 and CTL, thus being an important factor for regulating and controlling immune responses.
# HCMV infected mice [4] = settings: for Level of serum hemolysin antibodies compared with the positive drug control group (in words): HCMV infected mice, ganciclovir 45.5 mg/kg/d as comparator; for Hemolysin (OD value): serum of HCMV infected mice, 540 nm, 21 days
# Description: as §1
# 40 min later after the last administration, picking eyeballs to take blood, collecting serum, diluting the serum for 100 times with normal saline, uniformly mixing 1 mL of the diluted serum, 0.5 mL of 5% chicken erythrocyte suspension and 0.5 mL of 10% complement (guinea pig serum), incubating for 30 min In 37° C. incubator, setting 0° C. refrigerator for 30 min to stop the reaction. Centrifugating, taking the supernatant, and then measuring the optical density (OD value) at 540 nm by spectrophotometer.
# [5] = high-dosage group 0.3 mg/kg/d intragastric
# [6] = low-dosage group 0.012 mg/kg/d intragastric
# [7] = medium-dosage group 0.06 mg/kg/d intragastric
# [8] = HCMV infected mice, high-dosage group 0.3 mg/kg/d intragastric
# [9] = HCMV infected mice, low-dosage group 0.012 mg/kg/d intragastric
# [10] = HCMV infected mice, medium-dosage group 0.06 mg/kg/d intragastric
Molecule,"Toxic symptoms, death and weight growth of treated HCMV infected mice (in words) (HCMV infected mice [1])",Average animal weight (g) Termination of treatment (HCMV infected mice [1]; [5]) [g],Average animal weight (g) Termination of treatment (HCMV infected mice [1]; [6]) [g],Average animal weight (g) Termination of treatment (HCMV infected mice [1]; [7]) [g],Animal number (n) Termination of treatment (HCMV infected mice [1]; [5]),Animal number (n) Termination of treatment (HCMV infected mice [1]; [6]),Animal number (n) Termination of treatment (HCMV infected mice [1]; [7]),Effect on weight of the immune organs of HCMV infected mice (in words) (HCMV infected mice [2]),IL-2 level compared with the model group (in words) (HCMV infected mice [3]),IL-2 level compared with the positive drug control group (in words) (HCMV infected mice [3]),IL-2 concentration (HCMV infected mice [3]; [5]) [pg/mL],IL-2 concentration (HCMV infected mice [3]; [6]) [pg/mL],IL-2 concentration (HCMV infected mice [3]; [7]) [pg/mL],Level of serum hemolysin antibodies compared with the positive drug control group (in words) (HCMV infected mice [4]),Hemolysin (OD value) (HCMV infected mice [4]; [5]),Hemolysin (OD value) (HCMV infected mice [4]; [6]),Hemolysin (OD value) (HCMV infected mice [4]; [7]),other results
20(R)-ginsenoside Rg3 8-N-butyrate [Ginsenoside rg3 derivatives],"mild toxic symptom, less death and good weight growth",27.7 ± 1.84,26.4 ± 0.18,27.1 ± 0.49,9,6,7,obvious weight increasing effect,higher than those of the model group,superior to that of the positive drug control group,29.32 ± 4.09,27.99 ± 5.38,28.62 ± 4.21,superior to that of the positive drug control group,0.19 ± 0.11,0.17 ± 0.08,0.18 ± 0.07,–
"CC(C)=CCC[C@](C)(O)[C@H]1CC[C@]2(C)[C@@H]1[C@H](O)C[C@@H]1[C@@]3(C)CC[C@H](O[C@@H]4O[C@H](CO)[C@@H](O)[C@H](O)[C@H]4O[C@@H]4O[C@H](CO)[C@@H](O)[C@H](O)[C@H]4O)C(C)(C)[C@@H]3CC[C@]12C [Ginsenoside rg3, 20(R)-ginsenoside Rg3]","mild toxic symptom, less death and good weight growth",26.6 ± 1.83,25.1 ± 0.11,25.8 ± 0.54,8,6,6,obvious weight increasing effect,higher than those of the model group,superior to that of the positive drug control group,28.64 ± 4.66,27.02 ± 6.39,27.19 ± 5.60,superior to that of the positive drug control group,0.18 ± 0.03,0.15 ± 0.08,0.16 ± 0.05,Spleen indexes and thymus gland indexes compared with the model group (in words) (HCMV infected mice [2]; HCMV infected mice): significantly different from those of the model group; Spleen indexes (HCMV infected mice [2]; [8]): 0.061 ± 0.021; Thymus gland indexes (HCMV infected mice [2]; [8]): 0.031 ± 0.009; Spleen indexes (HCMV infected mice [2]; [9]): 0.056 ± 0.045; Thymus gland indexes (HCMV infected mice [2]; [9]): 0.027 ± 0.011; Spleen indexes (HCMV infected mice [2]; [10]): 0.057 ± 0.013; Thymus gland indexes (HCMV infected mice [2]; [10]): 0.029 ± 0.021
"Nc1nc(O)c2ncn(COC(CO)CO)c2n1 [Positive drug control group, ganciclovir, reference compound]",–,–,–,–,–,–,–,–,–,–,–,–,–,–,–,–,–,"Average animal weight (g) Termination of treatment (HCMV infected mice [1]; ganciclovir 45.5 mg/kg/d): 26.9 ± 3.97 g; Survival number, weight growth and symptom expression compared with the test drug groups (in words) (HCMV infected mice [1]; ganciclovir 45.5 mg/kg/d): totally approximate to those of the large-dosage groups; Animal number (n) Termination of treatment (HCMV infected mice [1]; ganciclovir 45.5 mg/kg/d): 8; IL-2 concentration (HCMV infected mice [3]; ganciclovir 45.5 mg/kg/d): 24.54 ± 2.66 pg/mL; Hemolysin (OD value) (HCMV infected mice [4]; ganciclovir 45.5 mg/kg/d): 0.11 ± 0.04 OD value"

# Reference: patent US10675317B2, “Use of ginseng extract, ginsenoside and ginsenoside derivative in the preparation of medicine or health care product for treating cytomegalovirus infection disorders” (priority 2015, dated 2020)
